Measured values as given in paper PMC10373478, “Exploration and Exploitation Approaches Based on Generative Machine Learning to Identify Potent Small Molecule Inhibitors of α-Synuclein Secondary Nucleation” (Journal of Chemical Theory and Computation, 2023).

Biological target: T1, α-synuclein (αS) (Homo sapiens, UniProt P37840)
T1 construct: gene SNCA
Assay: seeded aggregation kinetics (ThT fluorescence) at […] compound
Type: biochemical

## CN1C(C(=O)Nc2ccccn2)=C(O)c2sc(Cl)cc2S1(=O)=O [lornoxicam]
  seeded aggregation kinetics (ThT fluorescence) at 25 and 50 μM compound: The potency of lornoxicam was mild in comparison to hits found previously, but it was nonetheless observable
